Measured values reported in PMC5228037, “Discovery and Mechanistic Characterization of Selective Inhibitors of H2S-producing Enzyme: 3-Mercaptopyruvate Sulfurtransferase (3MST) Targeting Active-site Cysteine Persulfide” (Scientific Reports, 2017).

Assays:
[1] = Reactivity test toward H2S (3rd screening, cysteine-activated H2S donor); details: 40 μM H2S donor, 1 mM L-cysteine, 37 °C 60 min, mean±S.D. n = 4
Experimental: Reactivity of the hit compounds toward H2S was next examined. The final concentration of the compounds was 10 or 30 μM. The assay protocol was as follows. Compounds were diluted with HSip-1 and cysteine-activated H2S donor[22] solution to 20 or 60 μM solution (15.4% DMSO) with a Multi-Drop and a pipette. Next, 2 mM L-cysteine solution (10 μL, final concentration: 1 mM L-cysteine) was dispensed into the plates (total volume was 20 μL, DMSO 7.7%), and the plates were incubated at 37 °C for 1 hr. The fluorescence of HSip-1 was measured (λex = 490 nm, λem = 510 nm) with a microplate reader. Background control wells (i.e., no addition wells instead of addition of the cysteine-activated H2S donor, n = 16) were also prepared for all plates.
Supplementary Table S2. Inhibition (%) of fluorescence increase caused by H2S in the 3rd […]
Compound 10 µM Compound 30 µM Compound 10 µM Compound 30 µM
All data are presented as the mean±S.D. (n = 4). Conditions: Mixtures of 1 μM HSip-1, 10 or 30 μM test compound, 40 μM H2S donor, 1 mM ʟ-cysteine, and 7.7% DMSO (v/v) were incubated at 37 °C for 60 min. The control with DMSO alone instead of DMSO solution of test compound was taken as 0% inhibition, and the sample without H2S donor was taken as 100% inhibition. […]
directly react with H2S: For this assay, we synthesized a reported small-molecular H2S donorS2 that produces H2S by reacting with cysteine. Each compound (10 or 30 μM) was dissolved in a solution (30 mM HEPES buffer (pH 7.4)) containing 1 μM HSip-1, 40 μM H2S donor, 1 mM ʟ-cysteine and 7.7% (v/v) DMSO as a cosolvent, and the solution was incubated at 37 °C for 60 min. Then, the fluorescence intensities were measured to evaluate the amount of H2S in the solution […]

[2] = molecular target: T1, GST-fused m3MST (GST-3MST) (Mus musculus, UniProt Q99J99); assay: 3MST inhibitor screening with H2S fluorescent probe HSip-1 (confirmation test, titration test); assay type: biochemical; details: HSip-1 fluorescence, room temperature 3 hr; for inhibition at 10 µM: 10 μM compound, 50 μM 3MP, 40 μM DTT, mean±S.D. n = 4; for IC50: 0.25, 1, 3, 10, 30 μM compound, 3MP and DTT, read-out: IC50 of 3MST inhibition (titration test)
T1 construct: made in house; host or cells: E. coli BL21
T1 sequence (Q99J99 1-297): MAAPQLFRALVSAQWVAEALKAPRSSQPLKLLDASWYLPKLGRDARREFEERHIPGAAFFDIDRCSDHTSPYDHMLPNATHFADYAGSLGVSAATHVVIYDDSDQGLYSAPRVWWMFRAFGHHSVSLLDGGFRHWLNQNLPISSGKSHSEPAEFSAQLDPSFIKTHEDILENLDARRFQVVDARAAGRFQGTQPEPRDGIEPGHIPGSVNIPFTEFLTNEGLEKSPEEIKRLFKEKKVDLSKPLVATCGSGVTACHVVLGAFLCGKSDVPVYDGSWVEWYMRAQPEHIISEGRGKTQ

inhibition at 10 µM [2] [%] | IC50 [2] [µM] | Structure (SMILES) | Inhibition (%) of fluorescence increase caused by H2S in the 3rd screening ([1]; 10 μM compound) [%] | Inhibition (%) of fluorescence increase caused by H2S in the 3rd screening ([1]; 30 μM compound) [%]
102.8 ± 0.2 | 1.7 | NC(=O)c1ccsc1NC(=O)CSc1nc2ccccc2c(=O)[nH]1 [compound 1] | 0.2±3.5 | 1.0±2.4
102 ± 2.9 | 2.7 | Cc1cc(=O)[nH]c(SCC(=O)c2cccc3ccccc23)n1 [compound 3] | -3.2±5.0 | -3.5±3.9
95.5 ± 3.4 | 5.7 | O=C(O)c1cccc(NS(=O)(=O)c2ccccc2)c1 [compound 5] | 2.5±4.5 | -1.2±16.3
81.7 ± 2.5 | 6.3 | Cc1sc2nc(SCC(=O)c3ccc(O)cc3O)[nH]c(=O)c2c1C [compound 2] | 6.5±1.8 | 19.6±15.3
